Experimental data from patent US4307097A, “Method of reducing increased intracranial pressure” (Tanabe Seiyaku Co., Ltd., priority 1979, dated 1981).

Key:
[1] = test system: intracranial pressure; experiment: Effect of i.v. injection of test compounds on intracranial pressure in rats; format: in vivo, rat (male SD-strain); conditions: rat, 0 minute = 100
Source text: Male SD-strain rats weighing 500 to 800 g (each group consisting of 5 rats) were anesthetized with urethane. […] Intracranial pressure (i.e., cerebrospinal fluid pressure in the cisterna magna) was continuously monitored via a cannula inserted in the cisterna magna. The cannula was connected to a transducer, and recordings were made on graph paper.

[2] = test system: intracranial pressure; experiment: Effect of p.o. administration of test compounds on intracranial pressure in rats; format: in vivo, rat (male SD-strain); conditions: rat, 8 mg/kg, 240 minutes, 0 minute = 100
Protocol: Male SD-strain rats weighing 500 to 800 g (each group consisting of 5 rats) were fasted for about 20 hours, and anesthetized with urethane. A suspension of a test compound in aqueous 0.5 w/v % carboxymethyl-cellulosewas administered orally to the rats. Then, the effect of the compound on the intracranial pressure was estimated in the same manner as described in Example 1.
Compound 4 (free base) listed in Example 1 was used in this experiment.

[3] = Acute toxicity; conditions: in vivo, mouse, observed for a week
Protocol: The 50% lethal dose (LD50) of the test compound was calculated according to the Weil's method from the number of mice died a week after the administration.

[4] = Therapeutic index (ratio of LD50 to minimum effective dose); format: in vivo; conditions: orally or intravenously
Source text: Unlike the hypertonic solutions of glycerol or mannitol, the therapeutic effect of the propanol derivative (I) of the present invention is not ascribable to the cerebral dehydrating effect and, therefore, said derivative (I) can be used either orally or parenterally. The propanol derivative (I) may also be used for the treatment of prophylaxis of increased intracranial pressure during and after brain surgical operation. Moreover, the propanol derivative (I) may be used for improving impaired consciousness, nervous disturbance and subjective symptoms (e.g., headache, nausea, vomiting) which are attributed to the cerebral diseases such as those mentioned hereinbefore. Further, whereas it is known that cerebral edema induces a rise in intracranial pressure and increased intracranial pressure serves to cause a build-up of edema which in turn impairs cerebral circulation, the propanol derivative (I) can interrupt this vicious cycle of cerebral diseases because of its potent intracranial pressure-lowering effect and its ability to ameliorate the cerebral circulatory impairment. The toxicity of the propanol derivative (I) of the present invention is low.

[5] = test system: increased intracranial pressure; experiment: Effect of i.v. injection on increased intracranial pressure (autologous blood injected into the brain) in rats; format: in vivo, rat (male SD-strain); conditions: rat, 0 minute = 100
Protocol: Male SD-strain rats weighing 500 to 800 g (each group consisting of 5 rats) were anesthetized with urethane. 0.03 ml of autologous blood were injected into the brain of the rats to induce an increase in intracranial pressure. The level of increased intracranial pressure in the rats was about twice as high as its initial level 120 to 180 minutes after injection of autologous blood and said increased intracranial pressure was maintained at an approximately same level thereafter. 180 minutes after injection of autologous blood, a solution of a test compound in an aqueous 5 w/v % mannitol solution was infused via the femoral vein of the rats at a rate of 0.2 ml/kg/minute for 40 minutes. Then, the effect of the test compound on the intracranial pressure was calculated according to the following formula: [formula]
Compound No. 4 listed in Example 1 was used in this experiment.

[6] = test system: increased intracranial pressure; experiment: Effect of i.v. injection on increased intracranial pressure (autologous blood injected into the lateral ventricle) in rabbits; format: in vivo, rabbit (male); conditions: rabbit, 0 minute = 100
Protocol: Male rabbits weighing 2.8 to 3.2 kg (each group consisting of 6 rabbits) were anethetized with urethane. 0.1 to 0.2 ml of autologous blood were injected into the lateral ventricle of the rabbits to induce a rise in intracranial pressure. The level of intracranial pressure was about 2.3 times as high as its initial level 150 to 180 minutes after injection of autologous blood. 180 minutes after injection of autologous blood, a solution of a test compound in an aqueous 10 w/v % maltose solution was administered intravenously to the rabbits at a rate of 0.1 ml/kg/minute for 20 minutes. Then, the effect of the test compound on the intracranial pressure was calculated in the same manner as described in Example 2. [The initial intracranial pressure (i.e., the normal intracranial pressure measured before injection of autologous blood) was 75±2.6 mm H2 O, and the intracranial pressure measured before administration of test compound was 176±16 mm H2 O.]
Compound 4 listed in Example 1 was used in this experiment.

[7] = test system: common carotid blood flow; experiment: Effect of test compounds on common carotid blood flow in cats; format: in vivo; conditions: cat, right thyroid artery, 30 seconds after administration, baseline 24.1 ± 0.9 ml/minute
Protocol: A solution of a test compound in an aqueous 10 w/v % maltose solution was injected into the right thyroid artery of the cats. The common carotid artery blood flow was continuously monitored via the flow probe set at the common carotid artery. The flow probe was connected to an electromagnetic flow meter, and recordings were made on graph paper. The effect of the test compound on the common carotid blood flow was estimated 30 seconds after administration of the test compound.

[8] = test system: intracranial pressure; experiment: Effect of i.v. injection of test compounds on intracranial pressure in beagle dogs; format: in vivo, beagle dog (male); conditions: beagle dog, 1.0 mg/kg, 0 minute = 100
Protocol: A solution of a test compound in an aqueous 5 w/v % mannitol solution was infused via the saphenous vein of the beagle dogs at a rate of 0.1 ml/kg/minute for 40 minutes.

COc1cc(NC(C)=O)ccc1OCC(O)CN1CCN(c2ccccc2)CC1 (centres unmarked) [Compound 1, 1-(4-acetamido-2-methoxyphenoxy)-3-(4-phenylpiperazino)-2-propanol]
Changes in intracranial pressure ([1]; 1.0 mg/kg, 40 minutes): 81.4% | Changes in intracranial pressure ([1]; 1.0 mg/kg, 60 minutes): 85.5% | Changes in intracranial pressure ([1]; 1.0 mg/kg, 120 minutes): 91.7% | Changes in intracranial pressure ([1]; 1.0 mg/kg, 180 minutes): 92.8%

COc1cc(NC(C)=O)ccc1OCC(O)CN1CCN(c2ccccc2C)CC1 (centres unmarked) [Compound 2, 1-(4-acetamido-2-methoxyphenoxy)-3-[4-(2-methylphenyl)piperazino]-2-propanol]
Changes in intracranial pressure ([1]; 1.0 mg/kg, 40 minutes): 90.5% | Changes in intracranial pressure ([1]; 1.0 mg/kg, 60 minutes): 90.7% | Changes in intracranial pressure ([1]; 1.0 mg/kg, 120 minutes): 90.1% | Changes in intracranial pressure ([1]; 1.0 mg/kg, 180 minutes): 91.5%

COc1cc(NC(C)=O)ccc1OCC(O)CN1CCN(c2ccccc2Cl)CC1 (centres unmarked) [Compound 3, 1-(4-acetamido-2-methoxyphenoxy)-3-[4-(2-chlorophenyl)piperazino]-2-propanol]
Changes in intracranial pressure ([1]; 1.0 mg/kg, 40 minutes): 92.4% | Changes in intracranial pressure ([1]; 1.0 mg/kg, 60 minutes): 87.5% | Changes in intracranial pressure ([1]; 1.0 mg/kg, 120 minutes): 85.3% | Changes in intracranial pressure ([1]; 1.0 mg/kg, 180 minutes): 85.0%

COc1cc(NC(C)=O)ccc1OCC(O)CN1CCN(c2cccc(F)c2)CC1 (centres unmarked) [Compound 4 (free base), 1-(4-acetamido-2-methoxyphenoxy)-3-[4-(3-fluorophenyl)piperazino]-2-propanol]
Changes in intracranial pressure [2]: 75.6% | LD50 at 168 h ([3]; po): 1550 mg/kg | therapeutic index (50% lethal dose / minimum effective dose) [4]: not less than 400

COc1cc(NC(C)=O)ccc1OCC(O)CN1CCN(c2cccc(F)c2)CC1.Cl (centres unmarked) [Compound 4, 1-(4-acetamido-2-methoxyphenoxy)-3-[4-(3-fluorophenyl)piperazino]-2-propanol hydrochloride]
Changes in intracranial pressure ([5]; 0.5 mg/kg, 40 minutes): 68.0% | Changes in intracranial pressure ([5]; 0.5 mg/kg, 60 minutes): 65.4% | Changes in intracranial pressure ([5]; 0.5 mg/kg, 120 minutes): 74.6% | Changes in intracranial pressure ([5]; 0.5 mg/kg, 180 minutes): 76.0% | Changes in intracranial pressure ([5]; 1.0 mg/kg, 40 minutes): 56.7% | Changes in intracranial pressure ([5]; 1.0 mg/kg, 60 minutes): 60.9% | Changes in intracranial pressure ([5]; 1.0 mg/kg, 120 minutes): 59.2% | Changes in intracranial pressure ([5]; 1.0 mg/kg, 180 minutes): 60.6% | Changes in intracranial pressure ([1]; 0.5 mg/kg, 40 minutes): 84.3% | Changes in intracranial pressure ([1]; 0.5 mg/kg, 60 minutes): 80.5% | Changes in intracranial pressure ([1]; 0.5 mg/kg, 120 minutes): 86.5% | Changes in intracranial pressure ([1]; 0.5 mg/kg, 180 minutes): 86.7% | Changes in intracranial pressure ([1]; 1.0 mg/kg, 40 minutes): 82.6% | Changes in intracranial pressure ([1]; 1.0 mg/kg, 60 minutes): 78.1% | Changes in intracranial pressure ([1]; 1.0 mg/kg, 120 minutes): 82.2% | Changes in intracranial pressure ([1]; 1.0 mg/kg, 180 minutes): 85.2% | Changes in intracranial pressure ([1]; 2.0 mg/kg, 40 minutes): 81.5% | Changes in intracranial pressure ([1]; 2.0 mg/kg, 60 minutes): 72.5% | Changes in intracranial pressure ([1]; 2.0 mg/kg, 120 minutes): 74.6% | Changes in intracranial pressure ([1]; 2.0 mg/kg, 180 minutes): 78.9% | Changes in intracranial pressure ([6]; 1 mg/kg, 20 minutes): 96.4% | Changes in intracranial pressure ([6]; 1 mg/kg, 60 minutes): 91.7% | Changes in intracranial pressure ([6]; 1 mg/kg, 120 minutes): 82.1% | Changes in intracranial pressure ([6]; 1 mg/kg, 180 minutes): 94.0% | Changes in intracranial pressure ([6]; 1 mg/kg, 240 minutes): 91.7% | Changes in intracranial pressure ([6]; 1 mg/kg, 300 minutes): 91.7% | Changes in intracranial pressure ([6]; 2 mg/kg, 20 minutes): 89.5% | Changes in intracranial pressure ([6]; 2 mg/kg, 60 minutes): 77.1% | Changes in intracranial pressure ([6]; 2 mg/kg, 120 minutes): 68.6% | Changes in intracranial pressure ([6]; 2 mg/kg, 180 minutes): 63.8% | Changes in intracranial pressure ([6]; 2 mg/kg, 240 minutes): 65.7% | Changes in intracranial pressure ([6]; 2 mg/kg, 300 minutes): 63.8% | LD50 at 168 h ([3]; iv): 280 mg/kg | Increase in common carotid blood flow ([7]; 1 μg/kg): 3.5 ± 0.8 Δml/minute | Increase in common carotid blood flow ([7]; 5 μg/kg): 6.1 ± 0.6 Δml/minute | Increase in common carotid blood flow ([7]; 10 μg/kg): 8.8 ± 1.3 Δml/minute | Changes in intracranial pressure ([8]; 40 minutes): 80.3% | Changes in intracranial pressure ([8]; 60 minutes): 75.6% | Changes in intracranial pressure ([8]; 120 minutes): 82.5% | Changes in intracranial pressure ([8]; 180 minutes): 83.1%

COc1cc(NC(C)=O)ccc1OCC(O)CN1CCN(c2ccccc2F)CC1 (centres unmarked) [Compound 5, 1-(4-acetamido-2-methoxyphenoxy)-3-[4-(2-fluorophenyl)piperazino]-2-propanol]
Changes in intracranial pressure ([1]; 1.0 mg/kg, 40 minutes): 84.0% | Changes in intracranial pressure ([1]; 1.0 mg/kg, 60 minutes): 84.0% | Changes in intracranial pressure ([1]; 1.0 mg/kg, 120 minutes): 81.3% | Changes in intracranial pressure ([1]; 1.0 mg/kg, 180 minutes): 87.5%

COc1cc(NC(C)=O)ccc1OCC(O)CN1CCN(c2cccc(C(F)(F)F)c2)CC1 (centres unmarked) [Compound 6, 1-(4-acetamido-2-methoxyphenoxy)-3-[4-(3-trifluoromethylphenyl)piperazino]-2-propanol]
Changes in intracranial pressure ([1]; 1.0 mg/kg, 40 minutes): 97.0% | Changes in intracranial pressure ([1]; 1.0 mg/kg, 60 minutes): 95.0% | Changes in intracranial pressure ([1]; 1.0 mg/kg, 120 minutes): 90.5% | Changes in intracranial pressure ([1]; 1.0 mg/kg, 180 minutes): 92.8%

COc1ccc(Cc2nccc3cc(OC)c(OC)cc23)cc1OC [Papaverine, reference compound]
Increase in common carotid blood flow ([7]; 10 μg/kg): 2.6 ± 0.2 Δml/minute | Increase in common carotid blood flow ([7]; 25 μg/kg): 5.4 ± 0.6 Δml/minute
